In series [1] the target is T1, Endothelin-1 receptor (Homo sapiens) (UniProt P25101).
T1 sequence (whole entry): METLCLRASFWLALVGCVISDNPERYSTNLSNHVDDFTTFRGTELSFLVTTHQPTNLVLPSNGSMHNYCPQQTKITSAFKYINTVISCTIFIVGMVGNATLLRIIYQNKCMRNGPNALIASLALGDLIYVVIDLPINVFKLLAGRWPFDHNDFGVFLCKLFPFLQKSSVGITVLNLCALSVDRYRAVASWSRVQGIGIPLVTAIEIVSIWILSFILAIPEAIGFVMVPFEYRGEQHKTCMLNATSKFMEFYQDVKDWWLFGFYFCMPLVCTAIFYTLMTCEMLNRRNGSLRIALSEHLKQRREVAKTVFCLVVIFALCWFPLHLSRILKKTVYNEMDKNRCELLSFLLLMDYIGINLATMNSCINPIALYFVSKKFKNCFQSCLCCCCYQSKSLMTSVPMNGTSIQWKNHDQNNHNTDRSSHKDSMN
The series is described as follows: Displacement of [125I]endhothelin-1 from human ETA receptor stably expressed in CHO cells Membrane assessed as maximum binding at 25 degC at 0.25 to 1.0 nM incubated for 4 hrs by saturation binding assay. Type of series: cell membranes. The settings on record: dose 0.25-1 nM.

The target in series [2] is Adrenergic receptor alpha-1 (Rattus norvegicus) (UniProt P15823+P23944+P43140). The series is described as follows: Displacement of [3H]prazosin from rat brain alpha1-adrenoceptor at 10 uM incubated for 60 mins by radiometric based scintillation counter assay relative to control. Type of series: tissue-based.
Series [3] is filed under the species Homo sapiens. The series is described as follows: Displacement of [3H] PK 11195 from central-type benzodiazepine (unknown origin) at 10 uM incubated for 15 mins by radiometric based scintillation counter assay relative to control.
Series [4] deals with Translocator protein (Homo sapiens) (UniProt P30536). The series is described as follows: Displacement of [3H] PK 11195 from peripheral-type benzodiazepine (unknown origin) at 10 uM incubated for 15 mins by radiometric based scintillation counter assay relative to control.
Translocator protein (Homo sapiens), sequence (P30536 whole entry): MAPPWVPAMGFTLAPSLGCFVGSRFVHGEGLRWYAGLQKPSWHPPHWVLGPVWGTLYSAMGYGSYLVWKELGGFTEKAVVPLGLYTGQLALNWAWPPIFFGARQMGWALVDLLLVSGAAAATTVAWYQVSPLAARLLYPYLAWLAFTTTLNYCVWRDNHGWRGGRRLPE
Series [5] addresses Bombesin receptor (Rattus norvegicus) (UniProt P52500+P24053+Q8K418). The series is described as follows: Displacement of [125I][Tyr4]bombesin from rat brain Bombesin receptor at 10 uM incubated for 60 mins by radiometric based scintillation counter assay relative to control. Type of series: tissue-based.
Series [6] deals with B2 bradykinin receptor (Homo sapiens) (UniProt P30411). The series is described as follows: Displacement of [3H]bradykinin from human recombinant Bradykinin B2 receptor at 10 uM incubated for 60 mins by radiometric based scintillation counter assay relative to control.
B2 bradykinin receptor (Homo sapiens), sequence (P30411 whole entry): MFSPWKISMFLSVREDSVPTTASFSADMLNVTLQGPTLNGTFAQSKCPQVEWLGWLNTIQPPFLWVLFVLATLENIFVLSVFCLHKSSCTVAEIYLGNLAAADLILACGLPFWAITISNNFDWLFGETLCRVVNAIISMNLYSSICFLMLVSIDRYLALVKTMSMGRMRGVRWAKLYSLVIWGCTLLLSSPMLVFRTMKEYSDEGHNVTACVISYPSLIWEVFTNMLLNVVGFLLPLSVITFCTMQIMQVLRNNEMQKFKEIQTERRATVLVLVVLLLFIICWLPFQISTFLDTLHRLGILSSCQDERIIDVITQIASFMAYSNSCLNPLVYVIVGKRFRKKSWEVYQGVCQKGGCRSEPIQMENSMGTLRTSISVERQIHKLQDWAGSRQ
In series [7] the target is Cannabinoid receptor 2 (Homo sapiens) (UniProt P34972). The series is described as follows: Displacement of [3H]WIN 55212-2 from human recombinant cannabinoid CB2 receptor at 10 uM incubated for 120 mins by radiometric based scintillation counter assay relative to control.
Cannabinoid receptor 2 (Homo sapiens), sequence (P34972 whole entry): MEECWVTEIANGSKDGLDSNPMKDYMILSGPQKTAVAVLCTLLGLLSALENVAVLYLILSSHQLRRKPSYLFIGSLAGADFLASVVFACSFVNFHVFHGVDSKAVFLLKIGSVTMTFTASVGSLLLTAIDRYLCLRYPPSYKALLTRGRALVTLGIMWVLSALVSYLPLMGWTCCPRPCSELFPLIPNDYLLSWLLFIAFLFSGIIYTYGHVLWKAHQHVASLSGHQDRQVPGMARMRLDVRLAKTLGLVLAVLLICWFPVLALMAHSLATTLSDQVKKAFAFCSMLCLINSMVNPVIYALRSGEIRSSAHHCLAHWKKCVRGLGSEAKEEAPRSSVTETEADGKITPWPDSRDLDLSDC
Series [8] addresses T1, Endothelin-1 receptor (Homo sapiens). The series is described as follows: Displacement of [125I]endothelin-1 from human recombinant endothelin ETA receptor at 10 uM incubated for 120 mins by radiometric based scintillation counter assay relative to control. The note with it: filed as antagonist.
For series [9], the species on record is Homo sapiens. The series is described as follows: Inhibition of human galanin receptor at 10 uM by radioligand binding assay relative to control.
The target of series [10] is Muscarinic acetylcholine receptor M2 (Homo sapiens) (UniProt P08172). The series is described as follows: Displacement of [3H]AF-DX 384 from human recombinant muscarinic M2 receptor at 10 uM incubated for 60 mins by radiometric based scintillation counter assay relative to control.
Muscarinic acetylcholine receptor M2 (Homo sapiens), sequence (P08172 whole entry): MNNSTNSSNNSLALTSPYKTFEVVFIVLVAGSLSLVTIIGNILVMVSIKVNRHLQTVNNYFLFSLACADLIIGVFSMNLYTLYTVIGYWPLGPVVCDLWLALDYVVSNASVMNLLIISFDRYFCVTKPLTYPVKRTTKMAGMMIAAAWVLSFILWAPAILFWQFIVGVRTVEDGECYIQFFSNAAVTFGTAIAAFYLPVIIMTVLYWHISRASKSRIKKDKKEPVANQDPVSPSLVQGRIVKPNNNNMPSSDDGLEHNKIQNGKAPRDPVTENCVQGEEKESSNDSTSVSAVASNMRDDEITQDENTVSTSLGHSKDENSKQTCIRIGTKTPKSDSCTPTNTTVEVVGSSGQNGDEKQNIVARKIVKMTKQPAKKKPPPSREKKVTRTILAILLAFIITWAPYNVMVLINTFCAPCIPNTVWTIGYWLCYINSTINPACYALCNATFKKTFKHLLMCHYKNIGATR
The target of series [11] is Substance-P receptor (Homo sapiens) (UniProt P25103). The series is described as follows: Displacement of [125I]-Substance P LYS3 from human Neurokinin-1 receptor at 10 uM incubated for 30 mins by radiometric based scintillation counter assay relative to control.
Substance-P receptor (Homo sapiens), sequence (P25103 whole entry): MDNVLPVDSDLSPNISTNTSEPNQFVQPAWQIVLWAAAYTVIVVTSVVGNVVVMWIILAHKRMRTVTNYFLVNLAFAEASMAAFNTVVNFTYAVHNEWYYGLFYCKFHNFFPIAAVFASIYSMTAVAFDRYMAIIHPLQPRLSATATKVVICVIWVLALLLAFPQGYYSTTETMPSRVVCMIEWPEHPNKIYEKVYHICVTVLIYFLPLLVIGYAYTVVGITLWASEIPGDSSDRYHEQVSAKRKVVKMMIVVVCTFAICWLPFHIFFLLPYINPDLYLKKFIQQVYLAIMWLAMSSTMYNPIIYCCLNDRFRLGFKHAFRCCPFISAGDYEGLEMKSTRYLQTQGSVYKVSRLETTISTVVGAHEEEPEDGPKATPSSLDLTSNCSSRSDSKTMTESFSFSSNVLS
Series [12] deals with Substance-K receptor (Homo sapiens) (UniProt P21452). The series is described as follows: Displacement of [125I]NKA from human recombinant Neurokinin A receptor at 10 uM incubated for 60 mins by radiometric based scintillation counter assay relative to control.
Substance-K receptor (Homo sapiens), sequence (P21452 whole entry): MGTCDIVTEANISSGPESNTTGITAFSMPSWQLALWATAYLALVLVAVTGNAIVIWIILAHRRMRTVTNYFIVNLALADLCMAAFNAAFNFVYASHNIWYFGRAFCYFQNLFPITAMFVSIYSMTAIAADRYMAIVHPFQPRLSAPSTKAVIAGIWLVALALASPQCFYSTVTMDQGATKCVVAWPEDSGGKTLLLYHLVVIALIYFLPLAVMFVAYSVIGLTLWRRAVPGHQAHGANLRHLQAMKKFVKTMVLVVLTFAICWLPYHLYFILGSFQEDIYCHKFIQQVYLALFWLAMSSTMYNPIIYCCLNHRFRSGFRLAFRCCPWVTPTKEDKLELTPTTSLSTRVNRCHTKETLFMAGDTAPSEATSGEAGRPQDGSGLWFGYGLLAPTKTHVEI
The target in series [13] is Neuromedin-K receptor (Homo sapiens) (UniProt P29371). The series is described as follows: Displacement of [3H]SR 142801 from human recombinant NK3 tachykinin receptor at 10 uM incubated for 120 mins by radiometric based scintillation counter assay relative to control.
Neuromedin-K receptor (Homo sapiens), sequence (P29371 whole entry): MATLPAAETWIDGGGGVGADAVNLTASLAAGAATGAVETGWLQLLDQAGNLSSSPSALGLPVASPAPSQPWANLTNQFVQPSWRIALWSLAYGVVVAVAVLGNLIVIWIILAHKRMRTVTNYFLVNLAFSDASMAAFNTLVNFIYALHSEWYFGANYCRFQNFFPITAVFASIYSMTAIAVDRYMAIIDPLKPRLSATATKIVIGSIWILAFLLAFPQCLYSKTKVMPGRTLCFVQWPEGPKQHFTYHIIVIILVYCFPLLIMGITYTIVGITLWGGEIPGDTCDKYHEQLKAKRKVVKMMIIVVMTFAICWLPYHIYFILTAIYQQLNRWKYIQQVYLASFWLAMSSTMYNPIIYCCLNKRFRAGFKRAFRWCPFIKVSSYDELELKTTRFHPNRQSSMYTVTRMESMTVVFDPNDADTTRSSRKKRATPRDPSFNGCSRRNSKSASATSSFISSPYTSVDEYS
Series [14] addresses Neuropeptide Y receptor type 1 (Homo sapiens) (UniProt P25929). The series is described as follows: Displacement of [125I]peptide YY from human recombinant Y1 receptor at 10 uM incubated for 120 mins by radiometric based scintillation counter assay relative to control.
Series [15] addresses Kappa-type opioid receptor (Homo sapiens) (UniProt P41145). The series is described as follows: Displacement of [3H]U-69593 from human kappa-Opioid receptor at 10 uM incubated for 60 mins by radiometric based scintillation counter assay relative to control.
Series [16] is filed under the species Homo sapiens. The series is described as follows: Displacement of [3H]BRL 43694 from human recombinant 5-Hydroxytryptamine 3 at 10 uM incubated for 120 mins by radiometric based scintillation counter assay relative to control.
Series [17] concerns the target Vasopressin V2 receptor (Homo sapiens) (UniProt P30518). The series is described as follows: Displacement of [3H]AVP from human recombinant Vasopressin V2 receptor at 10 uM incubated for 120 mins by radiometric based scintillation counter assay relative to control.
Series [18] is filed under the species Homo sapiens. The series is described as follows: Displacement of [35S]TBPS to GABA channel Chloride ionophore binding site (unknown origin) at 10 uM by radioligand binding assay relative to control. The settings on record: filed as antagonist.
Series [19] deals with T2, Endothelin-1 receptor (Rattus norvegicus, UniProt P26684).
T2 sequence (P26684 whole entry): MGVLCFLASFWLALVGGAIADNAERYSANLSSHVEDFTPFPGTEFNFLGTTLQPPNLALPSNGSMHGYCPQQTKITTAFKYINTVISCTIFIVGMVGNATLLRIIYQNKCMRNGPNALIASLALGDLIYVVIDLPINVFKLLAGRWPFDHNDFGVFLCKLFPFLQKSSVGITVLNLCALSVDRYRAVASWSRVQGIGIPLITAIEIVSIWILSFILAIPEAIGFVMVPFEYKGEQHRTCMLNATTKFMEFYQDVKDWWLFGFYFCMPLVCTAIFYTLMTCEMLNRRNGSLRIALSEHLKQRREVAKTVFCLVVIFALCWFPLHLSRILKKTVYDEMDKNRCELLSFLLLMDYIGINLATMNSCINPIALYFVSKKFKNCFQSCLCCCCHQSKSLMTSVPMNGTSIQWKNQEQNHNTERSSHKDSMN
The series is described as follows: Antagonist activity at ETA receptor in endothelin-1 stimulated rat MMQ cells assessed as inhibition of phosphatidylinositol hydrolysis in presence of myo-[3H] inositol by anion exchange chromatography. Type of series: functional, cell-based.

Series [20] can be described thus: Half life in Sprague-Dawley rat at 10 mg/kg, po administered for 12 hrs by HPLC analysis. The note with it: in vivo. Type of series: ADME, organism-based.
The nature of series [21]: Half life in Beagle dog at 5 mg/kg, po administered for 12 hrs by HPLC analysis. Type of series: ADME, organism-based, Canis lupus familiaris. The note with it: in vivo.
Series [22] in a line: Cmax in Sprague-Dawley rat at 10 mg/kg, po administered for 12 hrs by HPLC analysis. Type of series: ADME, organism-based. The settings on record: in vivo.
Series [23] addresses T3, Endothelin-1 receptor (Rattus norvegicus) (UniProt P26684).
T3 sequence (whole entry): T2 sequence (P26684 whole entry)
The series is described as follows: In vivo antagonist activity to ETA receptor in endothelin-1 induced Sprague-Dawley rat assessed as inhibition of peak blood pressure administered for 1 to 4 hrs. Type of series: functional, organism-based. The note with it: dose 3-100 mg/kg, route po, time 1-4 hrs.

Series [24] can be described thus: Volume of distribution at steady state during terminal phase in Sprague-Dawley rat at 5 mg/kg, iv administered for 12 hrs by reverse phase HPLC-UV analysis. Type of series: ADME, organism-based. The note with it: in vivo, read-out: Vbeta.

This note sets out measurements from ChEMBL document CHEMBL5678795 (Eur J Pharmacol, 1999).

Each structure is given as a SMILES string. pIC50: −log10 of the molar value. Active and inactive are the calls of the source. The rule behind the calls is not given here.

Bombesin receptor (Rattus norvegicus), sequence (P24053 whole entry, looked up): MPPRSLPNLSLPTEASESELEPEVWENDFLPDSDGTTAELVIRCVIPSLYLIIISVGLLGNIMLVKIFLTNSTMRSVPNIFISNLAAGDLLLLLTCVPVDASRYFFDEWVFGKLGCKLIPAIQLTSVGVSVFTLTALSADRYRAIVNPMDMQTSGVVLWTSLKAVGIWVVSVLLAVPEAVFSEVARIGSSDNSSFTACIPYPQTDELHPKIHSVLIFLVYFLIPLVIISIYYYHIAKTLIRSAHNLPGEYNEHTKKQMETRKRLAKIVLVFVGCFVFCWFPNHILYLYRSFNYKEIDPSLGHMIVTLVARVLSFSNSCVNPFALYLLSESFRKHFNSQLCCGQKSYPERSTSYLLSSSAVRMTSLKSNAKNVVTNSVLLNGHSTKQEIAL
Bombesin receptor (Rattus norvegicus), sequence (P52500 whole entry, looked up): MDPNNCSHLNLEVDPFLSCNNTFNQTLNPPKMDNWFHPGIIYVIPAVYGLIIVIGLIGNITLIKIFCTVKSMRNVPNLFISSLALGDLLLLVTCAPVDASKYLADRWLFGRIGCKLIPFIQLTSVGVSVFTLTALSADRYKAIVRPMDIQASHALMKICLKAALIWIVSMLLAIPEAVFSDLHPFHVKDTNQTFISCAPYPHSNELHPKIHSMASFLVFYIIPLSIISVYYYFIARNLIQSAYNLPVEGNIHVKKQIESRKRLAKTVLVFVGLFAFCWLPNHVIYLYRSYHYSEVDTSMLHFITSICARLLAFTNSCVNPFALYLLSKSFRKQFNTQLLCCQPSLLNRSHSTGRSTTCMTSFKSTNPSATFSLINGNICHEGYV
Bombesin receptor (Rattus norvegicus), sequence (Q8K418 whole entry, looked up): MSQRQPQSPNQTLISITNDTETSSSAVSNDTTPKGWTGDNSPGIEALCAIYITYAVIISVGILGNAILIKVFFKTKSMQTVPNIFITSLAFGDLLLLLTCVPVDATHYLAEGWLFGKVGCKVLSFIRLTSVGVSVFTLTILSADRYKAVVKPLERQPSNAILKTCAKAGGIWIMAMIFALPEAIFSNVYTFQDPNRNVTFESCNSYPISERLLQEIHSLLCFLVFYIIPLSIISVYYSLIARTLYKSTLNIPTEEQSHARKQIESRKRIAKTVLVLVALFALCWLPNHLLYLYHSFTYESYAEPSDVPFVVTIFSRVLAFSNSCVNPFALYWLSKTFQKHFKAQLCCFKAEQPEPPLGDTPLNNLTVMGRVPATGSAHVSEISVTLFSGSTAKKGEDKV
Kappa-type opioid receptor (Homo sapiens), sequence (P41145 whole entry): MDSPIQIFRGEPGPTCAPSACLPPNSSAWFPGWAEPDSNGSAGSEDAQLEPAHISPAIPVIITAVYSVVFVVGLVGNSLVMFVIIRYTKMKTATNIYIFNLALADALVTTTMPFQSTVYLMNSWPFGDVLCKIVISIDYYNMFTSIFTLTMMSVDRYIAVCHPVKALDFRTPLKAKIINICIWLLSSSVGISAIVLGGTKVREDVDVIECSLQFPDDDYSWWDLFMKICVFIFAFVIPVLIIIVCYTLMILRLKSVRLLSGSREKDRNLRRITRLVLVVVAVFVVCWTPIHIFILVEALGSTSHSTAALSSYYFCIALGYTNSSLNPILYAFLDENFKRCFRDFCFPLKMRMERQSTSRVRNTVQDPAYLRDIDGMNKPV
Neuropeptide Y receptor type 1 (Homo sapiens), sequence (P25929 whole entry): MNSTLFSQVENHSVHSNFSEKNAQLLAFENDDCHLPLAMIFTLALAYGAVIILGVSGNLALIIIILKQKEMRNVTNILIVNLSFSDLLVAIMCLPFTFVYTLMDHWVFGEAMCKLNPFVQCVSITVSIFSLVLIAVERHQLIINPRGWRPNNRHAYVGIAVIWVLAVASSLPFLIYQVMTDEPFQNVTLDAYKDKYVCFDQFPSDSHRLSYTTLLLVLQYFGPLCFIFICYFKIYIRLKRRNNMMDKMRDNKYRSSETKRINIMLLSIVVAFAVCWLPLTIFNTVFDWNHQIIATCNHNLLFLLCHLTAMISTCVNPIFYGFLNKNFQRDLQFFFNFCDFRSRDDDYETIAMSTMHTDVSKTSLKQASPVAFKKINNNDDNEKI

As to `CCCCN(CCCC)C(=O)CN1[C@H](c2cc(OC)c3c(c2)OCO3)C[C@@H](C(=O)O)[C@@H]1CC(C)(C)CCC`, in series [1], the Bmax entry was “inactive”. The inhibition was less than 10% in series [2]; less than 10% in series [3]; less than 10% in [4]; less than 10% in series [5]; less than 10% in [6]; 11% in series [7]. Further, the inhibition was 98% in [8]; less than 10% in [9]; less than 10% in series [10]; less than 10% in series [11]; less than 10% in series [12]; less than 10% in series [13]. In addition, the inhibition is less than 10% in series [14]; 28% in [15]; less than 10% in series [16]; less than 10% in series [17]; 61% in series [18]. Also, the pIC50 in [19] is 9.23. Besides, the results for the half-life in series [20] and in series [21] were 2.5 h and 3.3 h, respectively. The highest level in series [22] (Cmax) was 1690 ng/mL. Moreover, the Activity result in series [23] was “Dose-Dependent Effect”. In series [24], the Vd came out at 3.7 L/kg.
